The source of these data is paper PMC7559897, “Designed Antimicrobial Peptides Against Trauma-Related Cutaneous Invasive Fungal Wound Infections” (Journal of Fungi, 2020).

One series deals with A. baumannii 6043. The format is cell-based, Acinetobacter baumannii. The note with it: cation adjusted Mueller-Hinton broth, ~10^6 CFU/mL, 24 h, 37 °C, OD600 <0.1 in at least 3 of 4 wells, 2-128 μg/mL; shaded values previously reported ref 18. Put shortly: (§1)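 MIC = lowest dAMP level giving OD600 <0.1 in at least three of four replicate wells after 24 h at 37 °C. Inoculum ~10^6 CFU/mL in 2X cation-adjusted Mueller–Hinton broth; potato dextrose broth for the fungal isolate. Test range 2–128 μg/mL plus untreated.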

In the next series the test system is A. baumannii 6838. The format is cell-based, Acinetobacter baumannii. The note with it: cation adjusted Mueller-Hinton broth, ~10^6 CFU/mL, 24 h, 37 °C, OD600 <0.1 in at least 3 of 4 wells, 2-128 μg/mL; shaded values previously reported ref 18. Put shortly: as §1
Another series concerns A. baumannii ATCC 17978. The class given is cell-based, Acinetobacter baumannii. Particulars: cation adjusted Mueller-Hinton broth, ~10^6 CFU/mL, 24 h, 37 °C, OD600 <0.1 in at least 3 of 4 wells, 2-128 μg/mL; shaded values previously reported ref 18. Put shortly: as §1
For the next series, the system named is K. pneumonia 6069. The class given is cell-based, Klebsiella pneumoniae. The note with it: cation adjusted Mueller-Hinton broth, ~10^6 CFU/mL, 24 h, 37 °C, OD600 <0.1 in at least 3 of 4 wells, 2-128 μg/mL; shaded values previously reported ref 18. The gist of the method:
as §1

In the next series the test system is K. pneumonia ATCC 10031. The class given is cell-based, Klebsiella pneumoniae. Particulars: cation adjusted Mueller-Hinton broth, ~10^6 CFU/mL, 24 h, 37 °C, OD600 <0.1 in at least 3 of 4 wells, 2-128 μg/mL; shaded values previously reported ref 18. Put shortly:
as §1

The next series relates to P. aeruginosa 6186. The class given is cell-based, Pseudomonas aeruginosa. Particulars: cation adjusted Mueller-Hinton broth, ~10^6 CFU/mL, 24 h, 37 °C, OD600 <0.1 in at least 3 of 4 wells, 2-128 μg/mL; shaded values previously reported ref 18. The gist of the method:
as §1

For the next series, the system named is P. aeruginosa ATCC 19660. The class given is cell-based, Pseudomonas aeruginosa. Particulars: cation adjusted Mueller-Hinton broth, ~10^6 CFU/mL, 24 h, 37 °C, OD600 <0.1 in at least 3 of 4 wells, 2-128 μg/mL; shaded values previously reported ref 18. Put shortly: as §1
The next series concerns P. aeruginosa ATCC 27853. The class given is cell-based, Pseudomonas aeruginosa. The note with it: cation adjusted Mueller-Hinton broth, ~10^6 CFU/mL, 24 h, 37 °C, OD600 <0.1 in at least 3 of 4 wells, 2-128 μg/mL; shaded values previously reported ref 18. Put shortly: as §1
For the next series, the system named is MRSA 6313. The class given is cell-based, Staphylococcus aureus. Particulars: cation adjusted Mueller-Hinton broth, ~10^6 CFU/mL, 24 h, 37 °C, OD600 <0.1 in at least 3 of 4 wells, 2-128 μg/mL; shaded values previously reported ref 18. Put shortly:
as §1

The next series relates to MRSA 6381. The class given is cell-based, Staphylococcus aureus. The note with it: cation adjusted Mueller-Hinton broth, ~10^6 CFU/mL, 24 h, 37 °C, OD600 <0.1 in at least 3 of 4 wells, 2-128 μg/mL; shaded values previously reported ref 18. Put shortly: as §1
Another series has as its system MRSA ATCC 33592. The format is cell-based, Staphylococcus aureus. The note with it: cation adjusted Mueller-Hinton broth, ~10^6 CFU/mL, 24 h, 37 °C, OD600 <0.1 in at least 3 of 4 wells, 2-128 μg/mL; shaded values previously reported ref 18. Put shortly: as §1
The next series relates to S. aureus 6061. The class given is cell-based, Staphylococcus aureus. The note with it: cation adjusted Mueller-Hinton broth, ~10^6 CFU/mL, 24 h, 37 °C, OD600 <0.1 in at least 3 of 4 wells, 2-128 μg/mL; shaded values previously reported ref 18. The gist of the method: as §1
The subject of the next series is S. aureus B-767. The format is cell-based, Staphylococcus aureus. The note with it: cation adjusted Mueller-Hinton broth, ~10^6 CFU/mL, 24 h, 37 °C, OD600 <0.1 in at least 3 of 4 wells, 2-128 μg/mL; shaded values previously reported ref 18. The gist of the method: as §1
Another series has as its system L929 fibroblast cells. Nature of the series: Bioluminescent mammalian cytotoxicity assay. The format is cell-based, murine. The note with it: L929 fibroblasts, up to 64 μg/mL, 8 h of exposure, bioluminescence. The protocol:
Real-time killing of bacterial cells, P. aeruginosa or S. aureus, and mammalian cytotoxicity to assess dAMP off-target toxicity was evaluated using bioluminescent cells. The L929 fibroblast cells (ATCC, Manassas, VA, USA) were made bioluminescent by transfection with a luciferase gene. Cells (1 × 10^4 cells, 100 μL) were plated in 96-well black-walled plates and the candidate dAMPs were 2-fold serially diluted from specified concentrations in growth medium supplemented with 150 μg/mL D-luciferin. Each concentration was performed in triplicate, with the final volume being 200 μL. Imaging was performed at select times after the addition of the dAMP, and compared to concurrently run vehicle-control, using an IVIS Lumina imaging system (Caliper Life Sciences, Inc., Hopkinton, MA, USA). For imaging, the 96-well plate was positioned on the stage (12.5-cm field of view), with an open emission filter, binning of 4, and f-stop 1 and a 1-min exposure time. Monitoring bioluminescence allows assessment of the kinetics of cellular viability as there is a tight correlation between the bioluminescent signal and cell viability. […]
Figure 2 RP504, RP556 and RP557 induce limited mammalian cell toxicity. […] Cells were plated at 1×10^4 cells/well, allowed to adhere overnight and the specific dAMP added, and cytotoxicity evaluated through 8 h. […]

Series [1] deals with P. aeruginosa 19660 (Xen5 luciferase). In words: Bioluminescent time-kill assay. The class given is cell-based, Pseudomonas aeruginosa. The note with it: 8 μg/mL; RP553 at 60 min; bioluminescence. The source says:
(§2) Fungal and bacterial strains were obtained from American Type Culture Collection (ATCC, Manassas, VA, USA) or the clinical isolate collection at Trideum Biosciences (Frederick, MD, USA) and are presented in Table 1 and Table 2, respectively. Bioluminescence strains of P. aeruginosa 19660, transfected with the Xen5 luciferase gene, and S. aureus ATCC R 49525TM (Wright), transfected with the Xen36 luciferase gene, were obtained from Perkin Elmer (Waltham, MA, USA).
(§3) Real-time killing of bacterial cells, P. aeruginosa or S. aureus, and mammalian cytotoxicity to assess dAMP off-target toxicity was evaluated using bioluminescent cells. The L929 fibroblast cells (ATCC, Manassas, VA, USA) were made bioluminescent by transfection with a luciferase gene. Cells (1 × 10^4 cells, 100 μL) were plated in 96-well black-walled plates and the candidate dAMPs were 2-fold serially diluted from specified concentrations in growth medium supplemented with 150 μg/mL D-luciferin. Each concentration was performed in triplicate, with the final volume being 200 μL. Imaging was performed at select times after the addition of the dAMP, and compared to concurrently run vehicle-control, using an IVIS Lumina imaging system (Caliper Life Sciences, Inc., Hopkinton, MA, USA). For imaging, the 96-well plate was positioned on the stage (12.5-cm field of view), with an open emission filter, binning of 4, and f-stop 1 and a 1-min exposure time. Monitoring bioluminescence allows assessment of the kinetics of cellular viability as there is a tight correlation between the bioluminescent signal and cell viability. Data analysis was performed using the Living Image software program (version 4.3, Caliper Life Sciences, Inc., Hopkinton, MA, USA).
(§4) Figure 3 RP553, RP556, RP557 rapidly destroy P. aeruginosa and S. aureus. The bioluminescence of viable P. aeruginosa 19,660 and S. aureus 49,525 cells was quantitated in real time with an IVIS Lumina bioimaging system. Data represent the mean ± SE of triplicate replicates from two independent experiments. For some points, the error bars are shorter than the height of the symbols.

The test system of series [2] is S. aureus 49525 (Xen36 luciferase). The class given is cell-based, Staphylococcus aureus. Particulars: 8 μg/mL, 60 min incubation, bioluminescence, triplicates from two independent experiments.
Description: as §2, §3, §4

≈ marks a conversion by molar mass, not a printed value. Bridge positions count the residues as written; N and C are the ends. Peptide text beside a SMILES is read from it.

Turning to `CC[C@H](C)[C@@H]1NC(=O)CNC(=O)[C@H](CCCCN)NC(=O)[C@H](Cc2ccc(O)cc2)NC(=O)[C@@H]2CSSC[C@H](NC1=O)C(=O)N[C@@H](Cc1ccc(O)cc1)C(=O)N[C@@H](CCCCN)C(=O)N[C@@H](CCCCN)C(=O)N[C@H](C(=O)N[C@@H](CCCCN)C(N)=O)CSSC[C@H](NC(=O)[C@H](Cc1c[nH]c3ccccc13)NC(=O)[C@@H](N)CCCNC(=N)N)C(=O)N[C@@H](Cc1ccccc1)C(=O)N[C@@H](CCCCN)C(=O)N[C@@H](C(C)C)C(=O)N2` [RP556] (H-RWCFKVCYKGICYKKCK-NH2; disulfide 3-16, 7-12), the “MIC against A. baumannii 6043” value in the series on A. baumannii 6043 amounted to 8 µg/mL (≈ 3.72 µM). Moreover, the “MIC against A. baumannii 6838” value in the series with A. baumannii 6838 turned out to be 8 µg/mL (≈ 3.72 µM). In addition, the “MIC against A. baumannii ATCC 17978” value with A. baumannii ATCC 17978 came out at 8 µg/mL (≈ 3.72 µM). In the series with K. pneumonia 6069, the “MIC against K. pneumonia 6069” value was determined as 8 µg/mL (≈ 3.72 µM). Besides, the “MIC against K. pneumonia ATCC 10031” value against K. pneumonia ATCC 10031 was determined as 8 µg/mL (≈ 3.72 µM). For the same compound, the “MIC against P. aeruginosa 6186” value against P. aeruginosa 6186 is 4 µg/mL (≈ 1.86 µM). Moreover, the “MIC against P. aeruginosa ATCC 19660” value with P. aeruginosa ATCC 19660 came to 8 µg/mL (≈ 3.72 µM). In the series with P. aeruginosa ATCC 27853, the “MIC against P. aeruginosa ATCC 27853” value was 8 µg/mL (≈ 3.72 µM). In addition, the “MIC against MRSA 6313” value against MRSA 6313 was determined as 8 µg/mL (≈ 3.72 µM). Also, in the series on MRSA 6381, the “MIC against MRSA 6381” value stood at 4 µg/mL (≈ 1.86 µM). The “MIC against MRSA ATCC 33592” value against MRSA ATCC 33592 turned out to be 4 µg/mL (≈ 1.86 µM). The “MIC against S. aureus 6061” value against S. aureus 6061 was found to be 16 µg/mL (≈ 7.44 µM). Also, the “MIC against S. aureus B-767” value in the series with S. aureus B-767 came to 8 µg/mL (≈ 3.72 µM). Further, in the series with L929 fibroblast cells, the “mammalian cell toxicity (in words)” value is given as “Limited toxicity”. Moreover, the “P. aeruginosa killing (in words)” value in series [1] is on record as “immediate eradication”. The S. aureus killing in [2] is listed as 45%.
